Data on one compound can be found in patent US11572590B2, “Methods for evaluating tumor cell spheroids using 3D microfluidic cell culture device” (Dana-Farber Cancer Institute, Inc., priority 2017, dated 2023).

Common to all, as to assay: SelectScreen Kinase Profiling, single point inhibition and IC50 for off-target kinases
Holding throughout (type): biochemical

The target in test [1] is T1, off-target kinases (Homo sapiens, UniProt O43318).
T1 sequence (O43318 1-606): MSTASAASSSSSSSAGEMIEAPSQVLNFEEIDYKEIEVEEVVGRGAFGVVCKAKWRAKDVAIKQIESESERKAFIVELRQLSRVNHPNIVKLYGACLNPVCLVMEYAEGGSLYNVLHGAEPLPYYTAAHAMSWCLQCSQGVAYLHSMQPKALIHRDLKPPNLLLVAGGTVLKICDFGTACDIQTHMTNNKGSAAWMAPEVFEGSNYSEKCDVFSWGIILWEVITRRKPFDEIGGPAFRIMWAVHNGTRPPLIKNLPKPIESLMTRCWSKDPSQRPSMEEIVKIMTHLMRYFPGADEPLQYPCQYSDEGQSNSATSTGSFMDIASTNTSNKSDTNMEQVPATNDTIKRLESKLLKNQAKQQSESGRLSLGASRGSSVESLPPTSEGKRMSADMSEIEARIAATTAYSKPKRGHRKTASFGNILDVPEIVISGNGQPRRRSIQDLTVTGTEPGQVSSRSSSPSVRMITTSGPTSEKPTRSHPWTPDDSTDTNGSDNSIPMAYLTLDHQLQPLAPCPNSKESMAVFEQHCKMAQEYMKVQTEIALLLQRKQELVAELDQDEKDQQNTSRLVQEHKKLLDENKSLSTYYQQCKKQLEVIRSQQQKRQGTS
As to conditions: MAP3K7/MAP3K7IP1 (TAK1-TAB1), LanthaScreen Binding. (TR-FRET usually uses a lanthanide donor and a delayed reading to cut background.)

For test [2], the target named is off-target kinases (Homo sapiens, UniProt P12931). The settings on record: SRC, ATP Km app, ZLYTE.
off-target kinases (Homo sapiens, UniProt P12931), sequence (P12931 whole entry): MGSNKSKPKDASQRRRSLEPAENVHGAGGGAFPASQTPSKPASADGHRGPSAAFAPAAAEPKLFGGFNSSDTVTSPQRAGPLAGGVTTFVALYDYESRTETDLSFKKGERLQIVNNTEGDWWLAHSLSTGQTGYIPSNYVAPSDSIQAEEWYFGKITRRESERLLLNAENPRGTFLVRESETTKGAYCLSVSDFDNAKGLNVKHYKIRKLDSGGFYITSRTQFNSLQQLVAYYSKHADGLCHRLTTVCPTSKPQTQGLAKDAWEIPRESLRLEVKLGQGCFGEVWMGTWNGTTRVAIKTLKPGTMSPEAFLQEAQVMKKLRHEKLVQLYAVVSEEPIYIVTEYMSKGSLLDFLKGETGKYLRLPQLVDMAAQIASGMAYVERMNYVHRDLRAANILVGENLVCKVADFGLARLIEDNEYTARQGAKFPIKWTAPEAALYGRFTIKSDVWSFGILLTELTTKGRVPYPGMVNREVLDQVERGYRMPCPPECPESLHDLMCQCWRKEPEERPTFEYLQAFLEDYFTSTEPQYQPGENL
Test [3] concerns the target off-target kinases (Homo sapiens, UniProt P49759). The settings on record: CLK1, ZLYTE, ATP Km app.
Test [4] deals with T2, off-target kinases (Homo sapiens, UniProt P52564, S207E/T211E).
T2 sequence (P52564 1-334 S207E/T211E): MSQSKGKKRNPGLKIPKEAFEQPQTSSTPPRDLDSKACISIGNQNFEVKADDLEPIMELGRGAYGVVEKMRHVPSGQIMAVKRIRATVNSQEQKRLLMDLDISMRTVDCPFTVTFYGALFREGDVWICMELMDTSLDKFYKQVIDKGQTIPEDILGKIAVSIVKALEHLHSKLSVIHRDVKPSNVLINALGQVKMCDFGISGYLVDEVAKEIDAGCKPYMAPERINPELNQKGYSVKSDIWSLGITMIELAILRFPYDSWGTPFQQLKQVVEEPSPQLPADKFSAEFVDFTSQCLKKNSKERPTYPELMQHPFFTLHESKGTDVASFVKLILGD
The settings on record: MAP2K6 (MKK6) S207E T211E (mutant), LanthaScreen Binding.

Test [5] has as its target T3, off-target kinases (Homo sapiens, UniProt Q13043).
T3 sequence (Q13043 1-487): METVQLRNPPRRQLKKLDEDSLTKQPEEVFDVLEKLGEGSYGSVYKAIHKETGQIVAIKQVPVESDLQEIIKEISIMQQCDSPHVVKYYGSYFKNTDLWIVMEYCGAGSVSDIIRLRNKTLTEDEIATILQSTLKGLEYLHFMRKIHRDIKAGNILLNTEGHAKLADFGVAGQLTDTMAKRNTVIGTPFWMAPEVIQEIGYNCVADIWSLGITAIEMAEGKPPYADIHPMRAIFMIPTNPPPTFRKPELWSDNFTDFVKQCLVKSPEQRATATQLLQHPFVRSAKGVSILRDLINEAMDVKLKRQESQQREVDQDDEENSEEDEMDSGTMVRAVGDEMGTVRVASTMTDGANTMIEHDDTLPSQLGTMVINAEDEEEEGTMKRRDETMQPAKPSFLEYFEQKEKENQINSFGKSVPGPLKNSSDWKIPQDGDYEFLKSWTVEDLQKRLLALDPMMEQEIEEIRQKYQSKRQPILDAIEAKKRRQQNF

Where two headings read alike, the source gives them in different places.

off-target kinases (Homo sapiens, UniProt P49759), sequence (P49759 whole entry): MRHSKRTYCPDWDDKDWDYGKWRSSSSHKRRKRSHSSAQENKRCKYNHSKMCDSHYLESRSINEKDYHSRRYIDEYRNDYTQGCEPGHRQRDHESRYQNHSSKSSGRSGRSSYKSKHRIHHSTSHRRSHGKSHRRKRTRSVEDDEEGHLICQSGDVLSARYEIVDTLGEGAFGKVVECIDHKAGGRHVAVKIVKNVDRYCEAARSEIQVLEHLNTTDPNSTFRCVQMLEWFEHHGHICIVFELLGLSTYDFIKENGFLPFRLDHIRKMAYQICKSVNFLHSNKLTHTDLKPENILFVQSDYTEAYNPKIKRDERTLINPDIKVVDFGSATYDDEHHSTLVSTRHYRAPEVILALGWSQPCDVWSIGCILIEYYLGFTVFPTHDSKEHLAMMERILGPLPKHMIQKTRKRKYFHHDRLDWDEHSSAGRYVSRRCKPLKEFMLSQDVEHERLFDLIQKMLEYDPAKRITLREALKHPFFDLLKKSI

A word on the inhibition: it is the drop in the measured response relative to a control, in per cent. On to `N#Cc1cc(-c2ncnc(Nc3ccc(N4CCN(C5COC5)CC4)cc3)n2)ccc1OC1CCOCC1` [Compound 1, 5-(4-((4-(4-(oxetan-3-yl)piperazin-1-yl)phenyl)amino)-1,3,5-triazin-2-yl)-2-((tetrahydro-2H-pyran-4-yl)oxy)benzonitrile], for which the inhibition at off-target kinases [1] (read-out: % Inhibition 2) worked out at 22%; at off-target kinases [1] (read-out: % Inhibition Avg), 22%; on off-target kinases [2] (read-out: % Inhibition 1), 45%; at off-target kinases [2] (read-out: % Inhibition 2), 44%; on off-target kinases [2] (read-out: % Inhibition Avg) it was 45%; at off-target kinases [3] (read-out: % Inhibition 1) it was 33%. Moreover, the inhibition at off-target kinases [3] (read-out: % Inhibition 2) is 34%; on off-target kinases [3] (read-out: % Inhibition Avg), 33%; at off-target kinases [4] (read-out: % Inhibition 1), 5%; on off-target kinases [4] (read-out: % Inhibition 2), 5%; on off-target kinases [4] (read-out: % Inhibition Avg), 5%; on off-target kinases [5] (STK4 (MST1), ZLYTE, ATP Km app, read-out: % Inhibition Avg), 0%. Besides, the inhibition at off-target kinases [5] (read-out: % Inhibition 1) and on off-target kinases [5] (read-out: % Inhibition 2) was 0% each time.
